# Data: article PMC11025159 (Journal of Translational Medicine, 2024)
# Legend:
# JAK3 = target: T1, JAK3 (Homo sapiens, UniProt P52333); assay: Cell-free kinase assay JAK3; assay type: biochemical
# T1 construct: purchased Promega Corporation V3701
# T1 sequence (P52333 1-1124): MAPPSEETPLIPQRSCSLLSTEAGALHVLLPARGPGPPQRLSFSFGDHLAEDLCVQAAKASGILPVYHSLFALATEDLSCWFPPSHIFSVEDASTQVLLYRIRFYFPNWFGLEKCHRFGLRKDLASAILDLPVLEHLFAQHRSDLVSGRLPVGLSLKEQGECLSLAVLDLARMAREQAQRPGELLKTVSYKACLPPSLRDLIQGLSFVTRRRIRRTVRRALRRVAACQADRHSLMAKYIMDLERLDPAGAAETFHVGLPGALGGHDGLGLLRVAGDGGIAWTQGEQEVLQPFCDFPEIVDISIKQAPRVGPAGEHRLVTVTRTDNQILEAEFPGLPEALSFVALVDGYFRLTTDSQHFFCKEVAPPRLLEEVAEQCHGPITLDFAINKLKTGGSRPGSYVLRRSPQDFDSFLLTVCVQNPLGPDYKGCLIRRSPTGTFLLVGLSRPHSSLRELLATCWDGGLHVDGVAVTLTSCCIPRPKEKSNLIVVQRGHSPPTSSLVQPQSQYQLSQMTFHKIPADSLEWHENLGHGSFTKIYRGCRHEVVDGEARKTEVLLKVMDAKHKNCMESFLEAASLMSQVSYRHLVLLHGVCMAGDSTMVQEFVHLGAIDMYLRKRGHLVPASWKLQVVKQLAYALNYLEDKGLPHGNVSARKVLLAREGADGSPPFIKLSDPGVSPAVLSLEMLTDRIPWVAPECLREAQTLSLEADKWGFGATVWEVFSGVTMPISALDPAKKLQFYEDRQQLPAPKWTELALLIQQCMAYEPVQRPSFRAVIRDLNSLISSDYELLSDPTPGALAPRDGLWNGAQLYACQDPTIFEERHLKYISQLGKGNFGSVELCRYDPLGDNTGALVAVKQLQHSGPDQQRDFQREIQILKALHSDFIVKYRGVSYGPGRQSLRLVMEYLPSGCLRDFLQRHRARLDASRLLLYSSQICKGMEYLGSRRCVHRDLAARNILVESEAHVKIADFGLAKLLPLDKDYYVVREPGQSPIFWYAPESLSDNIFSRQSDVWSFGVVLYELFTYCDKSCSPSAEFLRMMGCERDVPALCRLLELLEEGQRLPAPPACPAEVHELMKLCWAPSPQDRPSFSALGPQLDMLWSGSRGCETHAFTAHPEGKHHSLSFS
# Protocol: (§1) The cell-free kinase assays of small molecules were determined by following the manufacturer-recommended protocols. Different concentrations in triplicate were used to determine the IC50 value of the hit molecules (active molecules). For data analysis, GraphPad Prism V9.5 Software and a sigmoidal dose–response (variable slope) equation were used. Each value represents an average of three replicates per concentration.
# PI-3-K α = target: T2, PI-3-K α (Homo sapiens, UniProt P42336); assay: Cell-free kinase assay PI-3-K α; assay type: biochemical; settings: Km ATP
# T2 construct: purchased Promega Corporation V1690
# T2 sequence (P42336 whole entry): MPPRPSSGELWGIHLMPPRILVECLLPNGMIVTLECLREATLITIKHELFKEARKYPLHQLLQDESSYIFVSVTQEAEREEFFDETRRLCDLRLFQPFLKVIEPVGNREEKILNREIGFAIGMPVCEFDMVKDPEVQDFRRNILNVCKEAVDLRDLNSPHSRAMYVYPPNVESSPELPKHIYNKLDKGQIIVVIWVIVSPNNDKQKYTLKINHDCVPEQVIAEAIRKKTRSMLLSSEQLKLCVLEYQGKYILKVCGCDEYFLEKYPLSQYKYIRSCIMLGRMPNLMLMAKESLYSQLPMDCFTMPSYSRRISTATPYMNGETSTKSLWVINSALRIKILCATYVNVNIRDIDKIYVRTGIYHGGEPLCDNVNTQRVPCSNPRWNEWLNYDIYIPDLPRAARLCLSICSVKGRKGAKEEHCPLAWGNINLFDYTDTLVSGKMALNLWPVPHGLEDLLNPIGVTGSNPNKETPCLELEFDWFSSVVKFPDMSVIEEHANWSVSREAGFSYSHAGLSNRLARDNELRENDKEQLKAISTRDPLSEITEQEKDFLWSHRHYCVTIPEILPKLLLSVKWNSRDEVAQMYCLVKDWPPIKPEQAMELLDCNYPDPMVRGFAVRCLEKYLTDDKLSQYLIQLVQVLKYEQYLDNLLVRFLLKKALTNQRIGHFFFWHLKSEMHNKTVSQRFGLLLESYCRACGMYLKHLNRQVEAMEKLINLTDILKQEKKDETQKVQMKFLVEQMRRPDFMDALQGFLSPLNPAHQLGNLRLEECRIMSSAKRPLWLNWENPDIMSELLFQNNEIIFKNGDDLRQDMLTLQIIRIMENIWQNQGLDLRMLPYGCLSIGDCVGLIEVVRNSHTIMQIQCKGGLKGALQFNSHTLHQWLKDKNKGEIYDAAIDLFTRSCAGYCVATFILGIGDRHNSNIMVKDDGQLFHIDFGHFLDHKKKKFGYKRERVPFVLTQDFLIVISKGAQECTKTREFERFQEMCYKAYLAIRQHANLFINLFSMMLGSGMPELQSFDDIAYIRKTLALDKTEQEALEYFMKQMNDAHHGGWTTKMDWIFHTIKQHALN
# T2 sequence (P27986 whole entry partner): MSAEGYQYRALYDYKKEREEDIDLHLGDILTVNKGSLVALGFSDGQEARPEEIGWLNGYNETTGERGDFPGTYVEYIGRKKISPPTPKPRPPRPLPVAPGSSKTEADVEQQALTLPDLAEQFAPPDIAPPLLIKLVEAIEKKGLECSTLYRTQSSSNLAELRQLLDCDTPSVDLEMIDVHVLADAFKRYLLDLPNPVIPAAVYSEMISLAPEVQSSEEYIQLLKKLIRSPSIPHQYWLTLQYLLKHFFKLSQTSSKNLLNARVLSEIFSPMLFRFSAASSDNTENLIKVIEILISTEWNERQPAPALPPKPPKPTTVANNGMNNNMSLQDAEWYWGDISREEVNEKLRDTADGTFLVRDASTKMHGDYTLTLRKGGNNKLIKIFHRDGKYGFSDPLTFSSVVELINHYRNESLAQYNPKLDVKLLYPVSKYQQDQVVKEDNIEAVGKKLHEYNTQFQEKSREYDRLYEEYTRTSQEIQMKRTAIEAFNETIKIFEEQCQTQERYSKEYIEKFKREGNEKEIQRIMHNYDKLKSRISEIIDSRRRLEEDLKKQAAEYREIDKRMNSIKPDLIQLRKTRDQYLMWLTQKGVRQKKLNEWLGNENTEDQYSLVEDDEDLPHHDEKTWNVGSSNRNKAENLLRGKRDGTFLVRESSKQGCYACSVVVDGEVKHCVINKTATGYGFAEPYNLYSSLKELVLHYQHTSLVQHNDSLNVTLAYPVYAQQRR
# Protocol: as §1
# PI-3-K β = target: T3, PI-3-K β (Homo sapiens, UniProt P42338); assay: Cell-free kinase assay PI-3-K β; assay type: biochemical; settings: Km ATP
# T3 construct: purchased Promega Corporation V1690
# T3 sequence (P42338 whole entry): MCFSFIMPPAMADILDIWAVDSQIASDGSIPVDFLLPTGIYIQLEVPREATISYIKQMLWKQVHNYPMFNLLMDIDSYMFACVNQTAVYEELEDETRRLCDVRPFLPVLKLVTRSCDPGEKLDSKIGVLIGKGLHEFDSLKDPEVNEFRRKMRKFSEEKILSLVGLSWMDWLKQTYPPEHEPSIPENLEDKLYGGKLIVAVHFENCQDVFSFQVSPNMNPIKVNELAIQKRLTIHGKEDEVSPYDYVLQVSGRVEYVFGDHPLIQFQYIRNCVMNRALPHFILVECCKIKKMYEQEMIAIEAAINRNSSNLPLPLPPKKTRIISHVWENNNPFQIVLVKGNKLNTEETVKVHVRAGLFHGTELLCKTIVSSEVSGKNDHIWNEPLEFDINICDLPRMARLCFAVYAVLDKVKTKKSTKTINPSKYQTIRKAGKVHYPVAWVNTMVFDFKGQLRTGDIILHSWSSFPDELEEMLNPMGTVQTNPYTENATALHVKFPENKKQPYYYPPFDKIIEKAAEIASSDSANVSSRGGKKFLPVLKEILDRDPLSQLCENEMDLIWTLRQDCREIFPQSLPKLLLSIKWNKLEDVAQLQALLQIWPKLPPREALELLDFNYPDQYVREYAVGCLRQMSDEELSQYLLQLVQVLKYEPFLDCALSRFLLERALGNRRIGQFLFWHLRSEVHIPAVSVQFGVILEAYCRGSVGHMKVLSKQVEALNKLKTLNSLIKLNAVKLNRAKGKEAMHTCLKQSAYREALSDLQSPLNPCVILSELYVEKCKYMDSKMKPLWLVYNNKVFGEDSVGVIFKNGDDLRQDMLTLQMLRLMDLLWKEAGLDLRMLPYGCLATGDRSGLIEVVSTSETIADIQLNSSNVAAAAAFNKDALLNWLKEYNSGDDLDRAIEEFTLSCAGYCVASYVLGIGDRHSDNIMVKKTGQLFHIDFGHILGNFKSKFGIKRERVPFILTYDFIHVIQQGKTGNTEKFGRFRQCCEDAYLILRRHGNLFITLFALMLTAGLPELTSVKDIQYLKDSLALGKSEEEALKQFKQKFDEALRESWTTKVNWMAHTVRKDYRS
# T3 sequence (P27986 whole entry partner): as the sequence (P27986 whole entry partner) above
# Protocol: as §1
# Mia PaCa-2 = assay: MTT cell viability assay Mia PaCa-2; assay type: cell-based, human; settings: Homo sapiens, MIA PaCa-2, 48 h
# Protocol: Cell viability was evaluated using an MTT colorimetric assay. Cells were seeded (10^5 cells/mL) in 96-well plates and allowed to grow overnight at 37 ℃ with 5% CO2 in a cell-culture incubator. On the following day, the cells were treated with small molecules at different concentrations (0.2–10 micro-molar) or vehicle (DMSO). Cells were then further incubated for 48 h.
# [1] = tested on: phosphorylation of JAK1, JAK3 and STAT3; assay: Western blotting of JAK/STAT phosphorylation in A549 cells; assay type: cell-based, human
# Protocol: For western blotting, A549 cells were seeded at a density of 0.2 × 10^6 cells/well in 6-well plates. […] Whole-cell lysates were prepared in 1× RIPA buffer (Sigma) with added sodium orthovanadate (1 mM), protease cocktail (Roche), NaF (1 mM), PMSF (1 mM) and EDTA (0.5 M). Protein estimation was done using Bradford reagent (Bio-Rad). […] Whole-cell lysates corresponding to 70-100 µg of protein were loaded. The samples were analysed by SDS-PAGE with a 10% separating gel. […] The membrane was probed with specific antibodies for pJAK-1 (1:1000), p-STAT-3 (CST) (1:1000), total JAK-1 (1:1000), pJAK-3 Z(1:1000), T-JAK-3 (1:1000), total STAT-3(1:1000), GAPDH (1:500), and visualized using ECL (Millipore). GAPDH was used as a loading control. […] Following this starvation period, the A549 cells were pre-treated with varying concentrations of MJ04 for a duration of 4 h. Following the pre-treatment, the cells were stimulated with 10 ng/mL of IL-6 for 30 min [20–22].
# [2] = tested on: IFN-γ-producing CD4+ T-cells; assay: T-cell differentiation of splenocytes, IFN-γ in CD4+ T-cells (Th1), flow cytometry; assay type: cell-based, C57BL/6 mice; settings: dose-dependent, 0.01-10 µM
# Protocol: Splenocytes were isolated from the spleen of C57BL/6 mice. The whole spleen was crushed in a complete RPMI medium and passed through the 40 µm cell filter to obtain a single-cell suspension. The cell suspension was centrifuged at 300×g for 5 min, and the pellet was resuspended into the 1× RBC lysis buffer (Life Technology, Thermofisher, USA) for 10 min at room temperature to lyse the red blood cells. The sample was further centrifuged at the same speed and duration, and the pellet was resuspended in complete RPMI medium. Now, splenocytes were seeded into the 96-well plates (U bottom) at 3 × 10^5 cells/well density. […] For Th1 and Tc1 differentiation, IL-12 (5 ng/ml) was added and allowed to grow for four days.
# Prior to harvesting, cells were further stimulated with PMA (50 ng/ml), ionomycin (1000 ng/ml), and glogi Stop (as per manufacturer recommendation) for 4 h. The plate was spun down at 2000 rpm for 10 min and washed once with FACS buffer (3% FBS, 1× PBS, and 200 mM EDTA). Cells were stained with anti-CD4-PerCP and anti-CD8-FITC antibodies (BD, Biosciences) in the dilution 1:400 by adding 100 µl/well and incubated at RT for 60 min. […] Cells were finally washed and resuspended into FACS buffer, and data was recorded into the BD accuri C6 flow cytometer, and data were analyzed by Flowjo.
# [3] = Pharmacokinetic study, dermal application; assay type: in vivo, C57BL/6 mice; settings: male, C57BL/6, mouse, topical or ocular; topical dose 30 mg/kg, plasma
# Protocol: The male C57BL/6 mice were used to study the pharmacokinetics of MJ04. MJ04 was dissolved in vehicle suspensions for dermal application (30 mg/kg). Blood samples were collected at different time points: 0 min, 30 min, 1 h, 2 h, 4 h, 8 h, 12 h, and 24 h after dermal application. Plasma samples were separated by centrifugation of whole blood and stored at less than − 70 °C until bioanalysis. The concentration of MJ04 in plasma was detected using LC–MS/MS (Agilent Technologies, 1260 Infinity system). The pharmacokinetic parameters were processed by DAS (version 3.2.8) software.
# [4] = A549 cells, increasing concentrations
structure (smiles),measurement,setting,value
Fc1ccc(-c2cnc3[nH]cc(-c4ccnc(NC5CC5)n4)c3c2)cc1 [MJ04],IC50,JAK3; 1mM ATP,0.0285 µM
same,Fold of selectivity vs. JAK3,JAK3; JAK 3,1
same,IC50,JAK3; Km ATP (2.5 µM),0.00203 µM
same,inhibitory activity against JAK3 in kinase assays and in MTT assays,JAK3; structure-activity statement,significant inhibitory activity
same,IC50,PI-3-K α,> 10 µM
same,IC50,PI-3-K β,> 10 µM
same,IC50,Mia PaCa-2,2.27 µM
same,STAT3 phosphorylation,[1]; A549 cells stimulated with IL-6,significant decrease
same,phosphorylation of STAT3 (Tyr705),"[1]; A549 cells, dose-dependent",significant decrease
same,phosphorylation of JAK1,[1]; [4],significant reduction
same,phosphorylation of JAK3,[1]; [4],significant reduction
same,differentiation of naïve T cells into Th1 subsets,[2],inhibits the differentiation of naïve T cells
same,Cmax,[3],480 nM
same,Tmax,[3],1 h
